From patent US7772003B2, “Lipid derivatives of aminoglycosides” (Aventis Pharma S.A., priority 2001, dated 2010)
“Also recorded” adds a separate entry of the source.

Assays:
HeLa cells = assay: Cytotoxicity by total extractable cellular proteins in the cell lysate; type: cell-based; conditions: 48 hours post-transfection, high charge ratio
Method: FIG. 4: Cytotoxicity of the transfecting compound KanaChol. HeLa cells were transfected in accordance with the protocol described in Example 3 using lipoplexes prepared by mixing 5 μg of plasmid DNA expressing luciferase with the amount of lipid required to form lipoplexes characterized by the charge ratio indicated. At 48 hours post-transfection, the cells were recovered and the toxicity was quantified using the total amount of cellular proteins in the cell lysate as an index of the number of cells, cell death producing a decrease in the extractable proteins. The total cellular proteins in the cell lysate is indicated as a function of the charge ratio of the lipoplexes. The data are expressed as concentration of extractable cellular proteins in the cell lysate (at fixed volume).
FIG. 5: Cytotoxicity of the KanaChol/DOPE (molar ratio 1:1) lipsomes. […] At 48 hours post-transfection, the cells were recovered and the toxicity was quantified using the total amount of cellular proteins in the cell lysate as an index of the number of cells, cell death producing a decrease in the extractable proteins. […] The data are expressed as concentration of extractable cellular proteins in the cell lysate (at fixed volume).
Thus, the cytotoxicity of the KanaChol was also measured at various charge ratios with the DNA. […]

[1] = test system: various cell lines (16HBE, HepG2); assay: In vitro transfection activity spectrum in other, less conventional cell lines (luciferase); type: cell-based; conditions: charge ratios of between 3 and 5; KanaChol alone weaker in particular in 16HBE and HepG2
Method: FIG. 6: Expression of luciferase in various cell lines transfected either with the transfecting compound KanaChol or with the KanaChol/DOPE (1:1) liposomes. The various cell lines were transfected in accordance with the protocol described in Example 5 using either KanaChol/DNA lipoplexes or KanaChol/DOPE/DNA lipoplexes (with a positive charge ratio of 3-5) prepared by mixing 5 μg of plasmid DNA expressing luciferase and the required amount of lipid to obtain a positive charge ratio of 3-5. The data are expressed in relative light units (RLU) per mg of cellular proteins.
The in vitro transfection experiments carried out in Examples 4 and 5 were again carried out in a similar way, but with other less conventional cell lines (species and specificity of each cell line are indicated in FIG. 6). The KanaChol/DNA and KanaChol/DOPE/DNA formulations were used at charge ratios of between 3 and 5 (optimum values as defined in Examples 4 and 5).

[2] = test system: HeLa, HEK293 and COS cells; assay: In vitro transfection, dose-response (luciferase reporter gene expression); type: cell-based
Method: FIG. 2: Dose-response curves of the in vitro transfection activity of the transfecting compound “KanaChol”. The expression of the reporter gene is indicated as a function of the charge ratio of the lipoplexes formed with the plasmid DNA. The HeLa, HEK293 and COS cells were transfected in accordance with the protocol described in Example 3 using lipoplexes prepared by mixing 5 μg of plasmid DNA expressing luciferase with the required amount of lipid. The data are expressed in relative light units (RLU) per mg of cellular proteins.
FIG. 3: Dose-response curves of the in vitro transfection activity of the KanaChol/DOPE (molar ratio 1:1) liposomes. The expression of the reporter gene is indicated as a function of the charge ratio of the lipoplexes formed with the plasmid DNA. The HeLa, HEK293 and COS cells were transfected in accordance with the protocol described in Example 4 using lipoplexes prepared by mixing 5 μg of plasmid DNA expressing luciferase with the required amount of lipid to form lipoplexes characterized by the charge ratio indicated. The data are expressed in relative light units (RLU) per mg of cellular proteins.
(§1) This study was carried out for lipoplexes comprising various amounts of KanaChol: 6.6, 13.2, 33, 66 or 132 nmol of KanaChol per 5 μg of DNA. In order to determine the theoretical mean charge ratio, it was considered that 1 μg of DNA represents 3 nmol of negative charges and that 3 amine groups of kanamycin are protonated at neutral pH during the formation of the lipoplexes and the transfection.
Preparation of the KanaChol/DNA lipoplexes: the KanaChol obtained according to Example 1 was dissolved in a 20 mM Hepes buffer solution (pH 7.4) at a positive charge concentration of 20 mM (considering that 3 amine functions are protonated at neutral pH). The lipoplexes were then prepared in accordance with the protocol described by Vigneron et al. (PNAS, 93, pp. 9682-9686, September. 1996) or by Patel et al. (Biochem. and Biophys. Res. Comm., 281, pp. 536-543, 2001).
Cell culture: HeLa cells (American Type Culture Collection (ATCC) Rockville, Md., USA) derived from a human cervical epithelium carcinoma were cultured in the presence of a medium of the MEM (minimum essential medium) type supplemented with 10% of fetal calf serum and antibiotics. The medium and the additives came from Gibco/BRL Life Technologies (Gaithersburg, Md., USA). The cells were cultured in flasks at 37° C. and at 5% of carbon dioxide in an incubator. […]
A 20 μl aliquot of supernatant of the centrifuged lysate was diluted in 100 μl of lysis buffer, to which 4 μl of 25 mM ATP (Sigma) and 20 μl of 25 mM luciferin (Sigma) were added. The samples were then placed in a Lumet LB9501 luminometer (Berthold, Nashua, N.H.) and the light emission integration value was measured for 10 seconds. […]

[3] = Electrophoretic gel shift studies (mean positive charge); type: physicochemical; conditions: complexed with nucleic acids
Method: as §1

[4] = test system: HeLa; NIH 3T3; HEK298; COS; and 16HBE cell lines; assay: In vitro transfection activity of NeoChol and NeoChol/DOPE (luciferase); type: cell-based; conditions: various charge ratios (1.3-26 NeoChol/DNA, 0.66-26 NeoChol/DOPE/DNA); 5 cell lines; NeoChol alone weaker particularly in 16HBE
Method: (§2) FIG. 8: Transfecting activity in various cell lines (HEK293, NIH3T3, HeLa, COS, 16HBE), which were transfected with the transfecting compound NeoChol. The expression of the reporter gene can be indicated as a function of the various charge ratio of the lipoplexes and plasmid DNA. The various cell lines were transfected according to the protocol as described in Example 8, using NeoChol/DNA lipoplexes, which were prepared by mixing 5 μg of plasmid DNA expressing luciferase. The data can be expressed in relative light units (RLU) per mg of cellular proteins.
as §2, with “FIG. 9: Expression of luciferase” for “FIG. 8: Transfecting activity”, “compound NeoChol/DOPE (1:1).” for “compound NeoChol.”, “gene is” for “gene can be”, “using NeoChol/DOPE/DNA” for “using NeoChol/DNA”, “data are” for “data can be”, “proteins. […]” for “proteins.”

Row | Structure (SMILES) | cytotoxicity (total extractable cellular proteins in the cell lysate) (HeLa cells) | transfection efficiency (luciferase expression) [1] | cell line with highest transfection ([2]; HeLa, HEK293 and COS compared) | expression of the reporter gene luciferase (transfection) ([2]; lipoplexes with 5 μg plasmid DNA expressing luciferase, HeLa, HEK293 and COS cells, data in RLU per mg of cellular proteins) | theoretical mean charge ratio of optimum transfection efficiency ([2]; lipoplexes with 5 μg plasmid DNA, 3 cell lines) | charge ratio at which the transfection efficiency decreases ([2]; very high charge ratios) | mean positive charge [3] | transfection efficacy (luciferase expression) [4]
1 | CC(C)CCCC(C)C1CCC2C3CC=C4CC(OC(=O)NCC5OC(OC6C(N)CC(N)C(OC7OC(CO)C(O)C(N)C7O)C6O)C(O)C(O)C5O)CCC4(C)C3CCC12C (stereo not drawn) [KanaChol, 3β[6′-kanamycin-carbamoyl]cholesterol] | decrease in the total number of extractable cellular proteins | less efficient overall | highest in the COS cell line | high expression levels | approximately 5 | > 7 | 2-3 | –
2 | CC(C)CCCC(C)C1CCC2C3CC=C4CC(OC(=O)NCCSC[C@H]5O[C@@H](OC6C(O)[C@H](N)CC(N)[C@H]6O[C@H]6CC(CN)[C@@H](O)C(O)C6N)C(O)C5O[C@H]5OC(CN)[C@@H](O)C(O)C5N)CCC4(C)C3CCC12C (some centres unmarked) [NeoChol, (5″-aminoethylsulfanyl) neomycin carbamoyl cholesterol] | – | – | – | – | – | – | – | efficient transfection; also recorded: somewhat less efficient
